Values quoted from earlier work as cited in patent US20060198860A1, “Synergistic blends of monoterpenes for mountain pine beetle pheromones” (Phero Tech Inc., priority 2005, published 2006).
Read-outs that look alike come from different tables or passages of the source.

Columns and labels:
mountain pine beetle [1] = details: for catch versus pheromones alone: five doses, less than 1.0 mg per day to over 6.0 g per day
mountain pine beetles = details: component alone
mountain pine beetle [2] = details: in one instance (of four Rocky Mountain locations); with trans-verbenol and exo-brevicomin
mountain pine beetle [3] = details: myrcene from 18 mg per day to 150 mg per day; traps also baited with trans-verbenol and exo-brevicomin
mountain pine beetle [4] = details: myrcene at approximately 100 mg per day

For `CC1=CCC(C(C)C)=CC1` [γ-terpinene], the “catches versus pheromone controls” value (mountain pine beetle [1]; doses of 51.7 mg per day and 1.1 g per day) is given as “significantly higher”.
For `CC1=CCC2C(C1)C2(C)C` (centres unmarked) [3-carene], the beetles caught (mountain pine beetles) is listed as “one female” and the “catches versus pheromones alone” value (mountain pine beetle [1]; dose of 600 mg per day) is listed as “higher than to the pheromones alone”.
In the case of `CC1=CCC(=C(C)C)CC1` [terpinolene], the “catch versus pheromones alone” value (mountain pine beetle [1]) is given as “no combination of terpinolene with trans-verbenol and exo-brevicomin that resulted in higher catches”, the “response versus pheromones alone” value (mountain pine beetle [1]; highest dose (2.1 g per day)) is given as “significantly lowered” and the “synergist, times better than myrcene” value (mountain pine beetle [2]) is given as ~88 times.
In the case of `C=C1CCC2CC1C2(C)C` (stereo not drawn) [β-pinene], the “catch versus pheromones alone” value (mountain pine beetle [1]) is listed as “at no dose was the catch significantly different”.
For `C=CC(=C)CCC=C(C)C` [myrcene], the “numbers of both sexes captured on raising the release rate” value (mountain pine beetle [3]) is listed as “more than doubling”, the “catches versus pheromones alone” value (mountain pine beetle [1]; doses of 0.9 and 6.4 g per day) is listed as “significantly higher” and the “synergist relative to the foliage blend” value (mountain pine beetle [4]; females) is listed as “over three times better”. For the same compound, the “synergist relative to the foliage blend” value (mountain pine beetle [4]; males) was “over four times a better synergist”.
In the case of `C=C1C=CC(C(C)C)CC1` (stereo not drawn) [β-phellandrene], the “catch versus pheromones alone” value (mountain pine beetle [1]) is listed as “at no dose was the catch significantly higher”.
For trans-verbenol, the beetles caught (mountain pine beetles) is listed as “no beetles”.
In the case of `CC1=CCC2CC1C2(C)C` (stereo not drawn) [α-pinene], the “catch versus pheromones alone” value (mountain pine beetle [1]) is listed as “at no dose was the catch significantly different”.
